Source: ChEMBL document CHEMBL1201862, “PubChem BioAssay data set” (2004)
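Exposure lasted 48 hours, with cells grown in 96-well plates and compounds tested at five concentrations. GI50 marks 50% less growth.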 Active and inactive are the calls of the source. No stated cut-off is given here; in the data, active = GI50 up to about 1.1 µM and inactive = higher.

Legend:
Assay in all cases: growth of human tumour cells (NCI), 48 h
SK-MEL-2 = tested on: SK-MEL-2
SK-MEL-28 = tested on: SK-MEL-28
UACC-62 = tested on: UACC-62
NCI-H460 = tested on: NCI-H460
LOX IMVI = tested on: LOX IMVI
OVCAR-8 = tested on: OVCAR-8
K562 = tested on: K562
HL-60 = tested on: HL-60
OVCAR-5 = tested on: OVCAR-5
NCI-H226 = tested on: NCI-H226
DMS-273 = tested on: DMS-273
RPMI-8226 = tested on: RPMI-8226
CAKI-1 = tested on: CAKI-1
SN12C = tested on: SN12C
PC-3 = tested on: PC-3
MDA-MB-231 = tested on: MDA-MB-231
MCF7 = tested on: MCF7
DU-145 = tested on: DU-145
MDA-N = tested on: MDA-N
BT-549 = tested on: BT-549

Measured: GI50

COc1ccc(C(=O)C(c2ccc(OC)cc2)C2C(=O)Oc3ccccc32)cc1 (configuration not stated)
inactive: SK-MEL-2 > 10 µM | SK-MEL-28 > 10 µM | UACC-62 > 10 µM | NCI-H460 > 10 µM | LOX IMVI > 10 µM | OVCAR-8 > 10 µM | K562 > 10 µM | HL-60 > 10 µM | OVCAR-5 > 10 µM | NCI-H226 > 10 µM | DMS-273 > 10 µM | RPMI-8226 > 10 µM | CAKI-1 > 10 µM | SN12C > 10 µM

CCCCCCCC/C=C\CCCCCCCC(=O)NCCN(CCN)C(=O)CCCCCCC/C=C\CCCCCCCC
inactive: SK-MEL-28 > 100 µM | UACC-62 > 100 µM | NCI-H460 > 100 µM | LOX IMVI > 100 µM | OVCAR-8 > 100 µM | K562 > 100 µM | HL-60 > 100 µM | OVCAR-5 > 100 µM | NCI-H226 > 100 µM | DMS-273 > 100 µM | RPMI-8226 > 100 µM | CAKI-1 51.5 µM | SN12C > 100 µM

CCC12CCCNC1c1c(n(C)c3ccccc13)C(C(=O)OC)C2 (configuration not stated)
inactive: SK-MEL-2 62.2 µM | SK-MEL-28 100 µM | UACC-62 56.8 µM | NCI-H460 76.9 µM | LOX IMVI 93.1 µM | OVCAR-8 88.3 µM | K562 67.9 µM | HL-60 72.9 µM | OVCAR-5 67 µM | NCI-H226 126 µM | DMS-273 68.7 µM | RPMI-8226 9.4 µM | CAKI-1 32.8 µM | SN12C 78.3 µM

CC(=O)O[C@H]1CC[C@@]2(C)C(=CC[C@@H]3C2CC[C@]2(C)Nc4c(cnn4-c4ccccc4)CC32)C1 (some centres not stated)
inactive: SK-MEL-2 54.6 µM | SK-MEL-28 10.4 µM | UACC-62 18.7 µM | NCI-H460 4.97 µM | OVCAR-8 29.4 µM | HL-60 2.77 µM | OVCAR-5 19.2 µM | NCI-H226 > 100 µM | DMS-273 4.24 µM | RPMI-8226 2.09 µM | CAKI-1 15.3 µM

O=C(O)c1c2c(cc3c(=O)cc(-c4ccccc4)oc13)CCCC2
inactive: SK-MEL-2 > 100 µM | SK-MEL-28 > 100 µM | UACC-62 > 100 µM | NCI-H460 > 100 µM | LOX IMVI > 100 µM | OVCAR-8 > 100 µM | K562 > 100 µM | OVCAR-5 > 100 µM | DMS-273 > 100 µM | RPMI-8226 > 100 µM | SN12C > 100 µM

Cc1cc(Cl)ccc1NC(=O)C1C(=O)C(=O)N(c2ccc(Cl)cc2C)C1=O (configuration not stated)
inactive: SK-MEL-2 89.9 µM | SK-MEL-28 > 100 µM | UACC-62 63.2 µM | LOX IMVI > 100 µM | OVCAR-8 56.6 µM | K562 40.6 µM | HL-60 > 100 µM | OVCAR-5 48.3 µM | NCI-H226 49.8 µM | DMS-273 > 100 µM | RPMI-8226 29 µM | CAKI-1 > 100 µM | SN12C > 100 µM

COc1cc2c3c(c1OC)-c1ccccc1C(C(O)c1ccccc1)C3N(C)CC2 (configuration not stated)
inactive: SK-MEL-2 28.1 µM | SK-MEL-28 16.4 µM | UACC-62 7.76 µM | NCI-H460 27.3 µM | LOX IMVI 32.1 µM | OVCAR-8 69.3 µM | K562 25.9 µM | HL-60 20 µM | OVCAR-5 > 100 µM | NCI-H226 31 µM | DMS-273 25.5 µM | RPMI-8226 21.9 µM | SN12C 32.6 µM

CCCCCCCCOCC(O)COC(C)C (configuration not stated)
inactive: SK-MEL-28 > 100 µM | UACC-62 91.4 µM | NCI-H460 42.6 µM | LOX IMVI 25.8 µM | OVCAR-8 70 µM | K562 28.1 µM | HL-60 14.9 µM | OVCAR-5 > 100 µM | NCI-H226 70 µM | DMS-273 16.7 µM | RPMI-8226 22.8 µM | CAKI-1 43.1 µM | SN12C 24.2 µM

COc1cc(C)c(C(=O)/C=C/c2cc(OC)c(O)c(OC)c2)cc1O
inactive: SK-MEL-2 18.9 µM | SK-MEL-28 18.6 µM | UACC-62 17.7 µM | NCI-H460 25.1 µM | LOX IMVI 19.5 µM | OVCAR-8 30.2 µM | K562 19.4 µM | HL-60 22.1 µM | OVCAR-5 27.6 µM | DMS-273 15.5 µM | RPMI-8226 > 100 µM | CAKI-1 26.4 µM

C#CCn1c(I)cc2c(c1=O)COC(=O)[C@]2(O)CC
inactive: SK-MEL-2 > 100 µM | SK-MEL-28 > 100 µM | UACC-62 > 100 µM | NCI-H460 > 100 µM | LOX IMVI > 100 µM | OVCAR-8 > 100 µM | PC-3 > 100 µM | K562 > 100 µM | HL-60 > 100 µM | OVCAR-5 > 100 µM | MDA-MB-231 > 100 µM | MCF7 > 100 µM | DU-145 > 100 µM | NCI-H226 > 100 µM | MDA-N > 100 µM | RPMI-8226 > 100 µM | CAKI-1 > 100 µM | BT-549 > 100 µM | SN12C > 100 µM

O=C(O)COc1ccc(O)c2c1C(=O)CCCC2=O
inactive: SK-MEL-2 > 100 µM | SK-MEL-28 > 100 µM | UACC-62 > 100 µM | NCI-H460 > 100 µM | LOX IMVI > 100 µM | OVCAR-8 > 100 µM | K562 > 100 µM | HL-60 > 100 µM | OVCAR-5 > 100 µM | DMS-273 > 100 µM | RPMI-8226 > 100 µM | CAKI-1 > 100 µM | SN12C > 100 µM

O=C(/C=C\c1cccc2ccccc12)c1cccs1
inactive: SK-MEL-28 14.3 µM | UACC-62 9.95 µM | NCI-H460 14 µM | OVCAR-8 7.08 µM | K562 2.56 µM | HL-60 3.25 µM | OVCAR-5 18.7 µM | DMS-273 5.26 µM | RPMI-8226 2.47 µM | CAKI-1 6.31 µM | SN12C 16.8 µM

O=C1NC2C=CN(Cc3ccccc3)C=C2C(=O)N2CCCC12 (configuration not stated)
inactive: SK-MEL-2 > 100 µM | SK-MEL-28 > 100 µM | UACC-62 > 100 µM | NCI-H460 > 100 µM | OVCAR-8 > 100 µM | HL-60 > 100 µM | OVCAR-5 > 100 µM | NCI-H226 > 100 µM | DMS-273 > 100 µM | CAKI-1 > 100 µM | SN12C > 100 µM

COc1cc2cc3c4c(cc(OC)c(OC)c4c2cc1OC)CCN3C(=O)CCC(=O)O
inactive: SK-MEL-2 > 100 µM | SK-MEL-28 > 100 µM | UACC-62 > 100 µM | LOX IMVI > 100 µM | K562 > 100 µM | HL-60 > 100 µM | OVCAR-5 > 100 µM | NCI-H226 > 100 µM | DMS-273 > 100 µM | RPMI-8226 > 100 µM | CAKI-1 > 100 µM | SN12C > 100 µM

CCCCCCCC(=O)OCC(COC(=O)C(C)(C)C)OC(=O)Cc1ccccc1 (configuration not stated)
inactive: SK-MEL-28 > 100 µM | UACC-62 > 100 µM | NCI-H460 > 100 µM | LOX IMVI > 100 µM | OVCAR-8 > 100 µM | K562 > 100 µM | HL-60 > 100 µM | OVCAR-5 > 100 µM | NCI-H226 > 100 µM | DMS-273 > 100 µM | RPMI-8226 > 100 µM | CAKI-1 > 100 µM | SN12C > 100 µM

C=C1CCCC2[C@](C)(CC3=C(Cl)C(=O)C=C(OC)C3=O)C(C)CC[C@]12C (some centres not stated)
inactive: SK-MEL-2 6.64 µM | SK-MEL-28 7.31 µM | UACC-62 6.4 µM | NCI-H460 8.63 µM | LOX IMVI 1.38 µM | OVCAR-8 2.93 µM | PC-3 1.58 µM | K562 1.67 µM | HL-60 1.9 µM | OVCAR-5 2.94 µM | MDA-MB-231 7.6 µM | MCF7 1.49 µM | DU-145 8.04 µM | NCI-H226 7.6 µM | MDA-N 6.95 µM | RPMI-8226 1.63 µM | CAKI-1 3.39 µM | BT-549 5 µM | SN12C 5.77 µM

O=C1Oc2ccccc2C(=O)/C1=C/NC(=S)NCCc1ccccc1
inactive: SK-MEL-2 19.4 µM | SK-MEL-28 > 100 µM | UACC-62 26.9 µM | NCI-H460 23.8 µM | LOX IMVI 42.9 µM | OVCAR-8 29.2 µM | PC-3 39.8 µM | K562 > 100 µM | HL-60 1.85 µM | OVCAR-5 68.4 µM | MDA-MB-231 37.8 µM | MCF7 56.1 µM | DU-145 23.4 µM | NCI-H226 > 100 µM | MDA-N 32.8 µM | RPMI-8226 35.2 µM | CAKI-1 35.3 µM | BT-549 20.2 µM | SN12C 40 µM

CCOc1ccc2c(c1)[n+]([O-])c(-c1ccccc1Cl)c(N)[n+]2[O-]
inactive: SK-MEL-2 > 100 µM | SK-MEL-28 > 100 µM | NCI-H460 > 100 µM | OVCAR-8 > 100 µM | K562 > 100 µM | HL-60 56.5 µM | OVCAR-5 > 100 µM | NCI-H226 > 100 µM | DMS-273 > 100 µM | CAKI-1 > 100 µM | SN12C > 100 µM

C=C1c2ccccc2N(S(=O)(=O)c2ccc(C)cc2)C12CCCCC2
inactive: SK-MEL-2 52.6 µM | SK-MEL-28 45.2 µM | UACC-62 62.2 µM | NCI-H460 86.7 µM | LOX IMVI 36.6 µM | OVCAR-8 > 100 µM | K562 29 µM | HL-60 19.8 µM | OVCAR-5 > 100 µM | NCI-H226 53.2 µM | DMS-273 45 µM | RPMI-8226 24.4 µM | SN12C > 100 µM

COc1cc(C2C(C(=O)O)=C(COC(C)=O)Oc3cc4c(cc32)OCO4)cc(OC)c1OC(C)=O (configuration not stated)
inactive: SK-MEL-2 > 100 µM | SK-MEL-28 > 100 µM | UACC-62 > 100 µM | NCI-H460 > 100 µM | LOX IMVI > 100 µM | OVCAR-8 > 100 µM | K562 > 100 µM | HL-60 > 100 µM | DMS-273 > 100 µM | RPMI-8226 > 100 µM | CAKI-1 > 100 µM | SN12C > 100 µM
